Measurements from patent publication US20240317752A1, “6-SUBSTITUTED-9H-PURINE DERIVATIVES AND RELATED USES” (Black Diamond Therapeutics, Inc., priority 2021, published 2024).

Molecular target: T1, BaF3 BRAF-KIAA1549 fusion cells (Homo sapiens, UniProt P15056)
T1 construct: The BRAF-KIAA1549 fusion mutant was subcloned into pMXs-IRES-Blasticidin (RTV-016, Cell Biolabs, San Diego, CA); fused on or other part: Q9HCM3 (UPF0606 protein KIAA1549)
Assay: BaF3 BRAF-KIAA1549 fusion cell proliferation assay (CellTiterGlo)
Format: cell-based
Conditions: 96 hours incubation, potency code
In short: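 BaF3 cells stably transduced with a BRAF-KIAA1549 fusion, blasticidin-selected and growing without IL-3, were treated with compound for 96 h in RPMI/10% heat-inactivated FBS. Viability read as ATP content by CellTiterGlo luminescence, normalised to DMSO-treated cells. IC50 by Levenberg-Marquardt fit.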

T1 sequence (P15056 whole entry, change not shown, the tested form may be a part): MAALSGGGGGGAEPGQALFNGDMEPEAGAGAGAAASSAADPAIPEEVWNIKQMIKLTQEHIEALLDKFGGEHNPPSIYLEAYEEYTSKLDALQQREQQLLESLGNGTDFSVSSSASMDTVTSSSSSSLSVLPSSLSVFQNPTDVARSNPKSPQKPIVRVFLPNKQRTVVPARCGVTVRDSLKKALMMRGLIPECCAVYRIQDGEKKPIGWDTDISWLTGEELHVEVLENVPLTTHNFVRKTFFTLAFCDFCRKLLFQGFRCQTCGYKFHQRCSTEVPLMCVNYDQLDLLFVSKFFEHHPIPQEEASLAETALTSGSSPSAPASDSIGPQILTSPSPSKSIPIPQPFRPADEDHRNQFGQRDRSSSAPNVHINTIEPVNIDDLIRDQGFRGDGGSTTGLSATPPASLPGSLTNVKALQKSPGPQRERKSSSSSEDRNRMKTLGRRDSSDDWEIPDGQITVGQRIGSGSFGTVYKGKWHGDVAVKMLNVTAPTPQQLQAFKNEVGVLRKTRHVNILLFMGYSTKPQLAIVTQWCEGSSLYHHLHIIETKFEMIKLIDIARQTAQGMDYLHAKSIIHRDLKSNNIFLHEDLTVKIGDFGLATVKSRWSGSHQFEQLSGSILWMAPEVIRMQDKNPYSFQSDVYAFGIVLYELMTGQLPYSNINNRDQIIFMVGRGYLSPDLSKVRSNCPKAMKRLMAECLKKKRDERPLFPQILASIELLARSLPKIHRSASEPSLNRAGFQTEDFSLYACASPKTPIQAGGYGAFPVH

Row | GI50 | SMILES
1 | < 0.02 µM | Cc1ccc(NC(=O)CC2CCC(F)(F)CC2)cc1Nc1ncccc1-c1ncnc2[nH]cnc12 [Compound I-14, N-(3-(3-(9H-purin-6-yl)pyridin-2-ylamino)-4-methylphenyl)-2-(4,4-difluorocyclohexyl)acetamide]
2 | 0.02 to 0.1 µM | Cc1ccc(NC(=O)c2cc(C(F)F)c(C)cn2)cc1Nc1ncccc1-c1ncnc2[nH]cnc12 [IA-90, N-(3-((3-(9H-purin-6-yl)pyridin-2-yl)amino)-4-methylphenyl)-4-(difluoromethyl)-5-methylpicolinamide]
3 | 0.02 to 0.1 µM | Cc1ncc(NC(=O)c2ccnc(C3(C#N)CC3)c2)cc1Nc1ncccc1-c1ncnc2[nH]cnc12 [Compound I-54, N-(5-(3-(9H-purin-6-yl)pyridin-2-ylamino)-6-methylpyridin-3-yl)-2-(1-cyanocyclopropyl)isonicotinamide]
4 | 0.02 to 0.1 µM | Cc1ccc(NC(=O)c2ccc(C(F)(F)F)c(Cl)c2)cc1Nc1ncccc1-c1ncnc2[nH]cnc12 [Compound I-33, N-(3-((3-(9H-purin-6-yl)pyridin-2-yl)amino)-4-methylphenyl)-3-chloro-4-(trifluoromethyl)benzamide]
5 | < 0.02 µM | Cc1ccc(NC(=O)c2cc(C3CC3)ccn2)cc1Nc1ncccc1-c1ncnc2[nH]cnc12 [Compound I-55, N-(3-(3-(9H-purin-6-yl)pyridin-2-ylamino)-4-methylphenyl)-4-cyclopropylpicolinamide]
6 | ≥ 0.5 µM | Cc1ccc(NC(=O)c2cc(C(F)(F)F)ccn2)cc1Nc1nccc(C)c1-c1ncnc2[nH]cnc12 [IA-152]
7 | < 0.02 µM | Cc1ccc(NC(=O)c2ccc(C(F)(F)F)c(C#N)c2)cc1Nc1ncccc1-c1ncnc2[nH]cnc12 [Compound I-42, N-(3-((3-(9H-purin-6-yl)pyridin-2-yl)amino)-4-methylphenyl)-3-cyano-4-(trifluoromethyl)benzamide]
8 | 0.02 to 0.1 µM | N#Cc1cc(C(=O)Nc2ccc(F)c(Nc3ncccc3-c3ncnc4[nH]cnc34)c2)ccc1Cl [Compound I-50, N-(3-(3-(9H-purin-6-yl)pyridin-2-ylamino)-4-fluorophenyl)-4-chloro-3-cyanobenzamide]
9 | 0.1 to 0.5 µM | Cc1ccc(NC(=O)C23CC(C(F)(F)F)(CO2)C3)cc1Nc1ncccc1-c1ncnc2[nH]cnc12 [IA-108, N-(3-(3-(9H-purin-6-yl)pyridin-2-ylamino)-4-methylphenyl)-4-(trifluoromethyl)-2-oxabicyclo[2.1.1]hexane-1-carboxamide]
10 | 0.02 to 0.1 µM | Cc1ccc(-c2ncnc3[nH]cnc23)c(Nc2cc(NC(=O)c3cc(C(F)(F)F)ccn3)ccc2C)n1 [Compound I-67, N-(4-methyl-3-((6-methyl-3-(9H-purin-6-yl)pyridin-2-yl)amino)phenyl)-4-(trifluoromethyl)picolinamide]
11 | 0.02 to 0.1 µM | Cc1ccc(NC(=O)Cn2cnc(C(F)(F)F)n2)cc1Nc1ncccc1-c1ncnc2[nH]cnc12 [Compound I-78, N-(3-((3-(9H-purin-6-yl)pyridin-2-yl)amino)-4-methylphenyl)-2-(3-(trifluoromethyl)-1H-1,2,4-triazol-1-yl)acetamide]
12 | 0.02 to 0.1 µM | Cc1ncc(C(=O)Nc2cccc(C(F)(F)F)c2)cc1Nc1ncccc1-c1ncnc2[nH]cnc12 [Compound I-52, 5-((3-(9H-purin-6-yl)pyridin-2-yl)amino)-6-methyl-N-(3-(trifluoromethyl)phenyl)nicotinamide]
13 | 0.02 to 0.1 µM | Cc1ccc(NC(=O)c2ccc(Cl)c(OC(F)(F)F)c2)cc1Nc1ncccc1-c1ncnc2[nH]cnc12 [Compound I-69, N-(3-((3-(9H-purin-6-yl)pyridin-2-yl)amino)-4-methylphenyl)-4-chloro-3-(trifluoromethoxy)benzamide]
14 | 0.1 to 0.5 µM | Cc1ccc(NC(=O)c2ccc(C(F)(F)F)c(C#N)n2)cc1Nc1ncccc1-c1ncnc2[nH]cnc12 [Compound I-59, N-(3-((3-(9H-purin-6-yl)pyridin-2-yl)amino)-4-methylphenyl)-6-cyano-5-(trifluoromethyl)picolinamide]
15 | < 0.02 µM | Cc1ccc(NC(=O)CC2CCCC(C(F)(F)F)C2)cc1Nc1ncccc1-c1ncnc2[nH]cnc12 (centres unmarked) [Compound I-47, N-(3-((3-(9H-purin-6-yl)pyridin-2-yl)amino)-4-methylphenyl)-2-(3-(trifluoromethyl)cyclohexyl)acetamide]
16 | 0.02 to 0.1 µM | Cc1ccc(NC(=O)c2cc(C(F)(F)F)ccn2)cc1Nc1ncccc1-c1ncnc2[nH]c(OCCN(C)C)nc12 [IA-124, N-(3-(3-(8-(2-(dimethylamino)ethoxy)-9H-purin-6-yl)pyridin-2-ylamino)-4-methylphenyl)-4-(trifluoromethyl)picolinamide]
17 | 0.02 to 0.1 µM | Cc1cnc(C(=O)Nc2ccc(C)c(Nc3ncccc3-c3ncnc4[nH]cnc34)c2)cc1C#N [Compound I-71, N-(3-((3-(9H-purin-6-yl)pyridin-2-yl)amino)-4-methylphenyl)-4-cyano-5-methylpicolinamide]
18 | < 0.02 µM | Cc1ccc(NC(=O)c2ccc(Cl)c(Cl)c2)cc1Nc1ncccc1-c1ncnc2[nH]cnc12 [Compound I-49, N-(3-(3-(9H-purin-6-yl)pyridin-2-ylamino)-4-methylphenyl)-3,4-dichlorobenzamide]

Row | GI50 | SMILES
19 | < 0.02 µM | Cc1nc2c(-c3cccnc3Nc3cc(NC(=O)c4cc(C(F)(F)F)c(OCCO)cn4)ccc3C)ncnc2[nH]1 [IA-129, 5-(2-hydroxyethoxy)-N-(4-methyl-3-((3-(8-methyl-9H-purin-6-yl)pyridin-2-yl)amino)phenyl)-4-(trifluoromethyl)picolinamide]
20 | 0.02 to 0.1 µM | COc1cnc(C(=O)Nc2ccc(C)c(Nc3ncccc3-c3ncnc4[nH]cnc34)c2)cc1C(F)(F)F [IA-100, N-(3-(3-(9H-purin-6-yl)pyridin-2-ylamino)-4-methylphenyl)-5-methoxy-4-(trifluoromethyl)picolinamide]
21 | 0.02 to 0.1 µM | Cc1ccc(NC(=O)C[C@@H]2CCO[C@@H](C(F)(F)F)C2)cc1Nc1ncccc1-c1ncnc2[nH]cnc12 (single isomer, unassigned) [IA-148]
22 | 0.02 to 0.1 µM | COc1nc2c(-c3nccnc3Nc3cc(NC(=O)c4cc(C(F)(F)F)ccn4)ccc3C)ncnc2[nH]1 [IA-122, N-(3-(3-(8-methoxy-9H-purin-6-yl)pyrazin-2-ylamino)-4-methylphenyl)-4-(trifluoromethyl)picolinamide]
23 | 0.1 to 0.5 µM | Cc1ccc(C(=O)Nc2cc(C(C)(C)C)nn2C2CC2)cc1Nc1ncccc1-c1ncnc2[nH]cnc12 [Compound I-79, 3-((3-(9H-purin-6-yl)pyridin-2-yl)amino)-N-(3-(tert-butyl)-1-cyclopropyl-1H-pyrazol-5-yl)-4-methylbenzamide]
24 | 0.02 to 0.1 µM | Cc1ncc(NC(=O)c2cncc(C(F)(F)F)c2)cc1Nc1ncccc1-c1ncnc2[nH]cnc12 [Compound I-18, N-(5-(3-(9H-purin-6-yl)pyridin-2-ylamino)-6-methylpyridin-3-yl)-5-(trifluoromethyl)nicotinamide]
25 | 0.02 to 0.1 µM | Cc1ccc(NC(=O)C[C@H]2CCO[C@H](C(F)(F)F)C2)cc1Nc1ncccc1-c1ncnc2[nH]cnc12 (single isomer, unassigned) [IA-147]
26 | < 0.02 µM | COc1cc(C(=O)Nc2ccc(C)c(Nc3ncccc3-c3ncnc4[nH]cnc34)c2)ccc1Cl [Compound I-41, N-(3-((3-(9H-purin-6-yl)pyridin-2-yl)amino)-4-methylphenyl)-4-chloro-3-methoxybenzamide]
27 | 0.02 to 0.1 µM | Cc1ccc(NC(=O)c2ccc(Cl)c(C3(C#N)CC3)c2)cc1Nc1ncccc1-c1ncnc2[nH]cnc12 [Compound I-38, N-(3-((3-(9H-purin-6-yl)pyridin-2-yl)amino)-4-methylphenyl)-4-chloro-3-(1-cyanocyclopropyl)benzamide]
28 | 0.02 to 0.1 µM | Cc1ccc(NC(=O)c2cc(C(F)(F)F)ccn2)cc1Nc1ncccc1-c1ncnc2[nH]c(OCCO)nc12 [IA-125, N-(3-(3-(8-(2-hydroxyethoxy)-9H-purin-6-yl)pyridin-2-ylamino)-4-methylphenyl)-4-(trifluoromethyl)picolinamide]
29 | < 0.02 µM | Cc1ccc(NC(=O)c2ccc(Cl)c(C#N)c2)cc1Nc1ncccc1-c1ncnc2[nH]cnc12 [Compound I-22, N-(3-((3-(9H-purin-6-yl)pyridin-2-yl)amino)-4-methylphenyl)-4-chloro-3-cyanobenzamide]
30 | < 0.02 µM | Cc1ccc(C(=O)Nc2cncc(C(F)(F)F)c2)cc1Nc1ncccc1-c1ncnc2[nH]cnc12 [Compound I-30, 3-((3-(9H-purin-6-yl)pyridin-2-yl)amino)-4-methyl-N-(5-(trifluoromethyl)pyridin-3-yl)benzamide]
31 | 0.1 to 0.5 µM | Cc1ccc(NC(=O)c2cc(C(F)(F)F)c(OC3CN(C)C3)cn2)cc1Nc1ncccc1-c1ncnc2[nH]cnc12 [IA-94, N-(3-(3-(9H-purin-6-yl)pyridin-2-ylamino)-4-methylphenyl)-5-(1-methylazetidin-3-yloxy)-4-(trifluoromethyl)picolinamide]
32 | 0.02 to 0.1 µM | Cc1ccc(NC(=O)C[C@@H]2CCO[C@H](C(F)(F)F)C2)cc1Nc1ncccc1-c1ncnc2[nH]cnc12 (single isomer, unassigned) [IA-149]
33 | < 0.02 µM | Cc1ccc(NC(=O)CN2CC[C@@H](C(F)(F)F)C2)cc1Nc1ncccc1-c1ncnc2[nH]cnc12 [IA-111, (R)—N-(3-(3-(9H-purin-6-yl)pyridin-2-ylamino)-4-methylphenyl)-2-(3-(trifluoromethyl)pyrrolidin-1-yl)acetamide]
34 | ≥ 0.5 µM | Cc1ccc(NC(=O)CN2CCN3CCC2C3)cc1Nc1ncccc1-c1ncnc2[nH]cnc12 (centres unmarked) [Compound I-89, N-(3-((3-(9H-purin-6-yl)pyridin-2-yl)amino)-4-methylphenyl)-2-(1,4-diazabicyclo[3.2.1]octan-4-yl)acetamide]
35 | ≥ 0.5 µM | Cc1ccc(NC(=O)CC2CCNC(C(F)(F)F)C2)cc1Nc1ncccc1-c1ncnc2[nH]cnc12 (centres unmarked) [Compound I-76, N-(3-((3-(9H-purin-6-yl)pyridin-2-yl)amino)-4-methylphenyl)-2-(2-(trifluoromethyl)piperidin-4-yl)acetamide]
